Test results from patent publication US9567341B2, “Pyrrolopyrimidine derivatives as NR2B NMDA receptor antagonists” (Rugen Holdings (Cayman) Limited, priority 2014, dated 2017).
Like-named read-outs stand apart in the source and are kept apart here.

How the values were obtained:
[1] = target: human NR1/NR2B (Homo sapiens (Human), UniProt Q13224); assay: NR2B antagonist activity (Fluo-4 calcium influx assay); format: cell-based
[2] = target: human NR1/NR2A (Homo sapiens (Human), UniProt Q05586+Q12879); assay: NR2A activity (Fluo-4 calcium influx assay); format: cell-based
[3] = target: CYP2D6 (Homo sapiens (Human), UniProt P10635); assay: CYP P450 enzyme inhibition in pooled human liver microsome; conditions: read-out: CYP2D6 IC50, dextromethorphan 5 μM
[4] = target: hERG channel (Homo sapiens (Human), UniProt Q12809); conditions: pH 7.35
[5] = tested on: Rats; assay: Electroconvulsive threshold (ECT) test; format: in vivo, rat; conditions: p.o. 60 minutes before ECS, theophylline 128 mg/kg, diazepam 16 mg/kg
[6] = tested on: Male mice (strain NLMN); assay: Forced swim test; format: in vivo, mouse; conditions: intraperitoneal, imipramine 32 mg/kg IP
[7] = HEK293 cells stably expressing human NR1/NR2B, glutamate 100 μM, glycine 50 μM, read-out: NR2B IC50
[8] = as printed in the CYP2D6 table, read-out: NR2B IC50
[9] = HEK293 cells stably expressing human NR1/NR2A, glutamate 100 μM, glycine 50 μM, read-out: NR2A IC50

Chain of human NR1/NR2B (Q13224 27-1484, other chains not shown): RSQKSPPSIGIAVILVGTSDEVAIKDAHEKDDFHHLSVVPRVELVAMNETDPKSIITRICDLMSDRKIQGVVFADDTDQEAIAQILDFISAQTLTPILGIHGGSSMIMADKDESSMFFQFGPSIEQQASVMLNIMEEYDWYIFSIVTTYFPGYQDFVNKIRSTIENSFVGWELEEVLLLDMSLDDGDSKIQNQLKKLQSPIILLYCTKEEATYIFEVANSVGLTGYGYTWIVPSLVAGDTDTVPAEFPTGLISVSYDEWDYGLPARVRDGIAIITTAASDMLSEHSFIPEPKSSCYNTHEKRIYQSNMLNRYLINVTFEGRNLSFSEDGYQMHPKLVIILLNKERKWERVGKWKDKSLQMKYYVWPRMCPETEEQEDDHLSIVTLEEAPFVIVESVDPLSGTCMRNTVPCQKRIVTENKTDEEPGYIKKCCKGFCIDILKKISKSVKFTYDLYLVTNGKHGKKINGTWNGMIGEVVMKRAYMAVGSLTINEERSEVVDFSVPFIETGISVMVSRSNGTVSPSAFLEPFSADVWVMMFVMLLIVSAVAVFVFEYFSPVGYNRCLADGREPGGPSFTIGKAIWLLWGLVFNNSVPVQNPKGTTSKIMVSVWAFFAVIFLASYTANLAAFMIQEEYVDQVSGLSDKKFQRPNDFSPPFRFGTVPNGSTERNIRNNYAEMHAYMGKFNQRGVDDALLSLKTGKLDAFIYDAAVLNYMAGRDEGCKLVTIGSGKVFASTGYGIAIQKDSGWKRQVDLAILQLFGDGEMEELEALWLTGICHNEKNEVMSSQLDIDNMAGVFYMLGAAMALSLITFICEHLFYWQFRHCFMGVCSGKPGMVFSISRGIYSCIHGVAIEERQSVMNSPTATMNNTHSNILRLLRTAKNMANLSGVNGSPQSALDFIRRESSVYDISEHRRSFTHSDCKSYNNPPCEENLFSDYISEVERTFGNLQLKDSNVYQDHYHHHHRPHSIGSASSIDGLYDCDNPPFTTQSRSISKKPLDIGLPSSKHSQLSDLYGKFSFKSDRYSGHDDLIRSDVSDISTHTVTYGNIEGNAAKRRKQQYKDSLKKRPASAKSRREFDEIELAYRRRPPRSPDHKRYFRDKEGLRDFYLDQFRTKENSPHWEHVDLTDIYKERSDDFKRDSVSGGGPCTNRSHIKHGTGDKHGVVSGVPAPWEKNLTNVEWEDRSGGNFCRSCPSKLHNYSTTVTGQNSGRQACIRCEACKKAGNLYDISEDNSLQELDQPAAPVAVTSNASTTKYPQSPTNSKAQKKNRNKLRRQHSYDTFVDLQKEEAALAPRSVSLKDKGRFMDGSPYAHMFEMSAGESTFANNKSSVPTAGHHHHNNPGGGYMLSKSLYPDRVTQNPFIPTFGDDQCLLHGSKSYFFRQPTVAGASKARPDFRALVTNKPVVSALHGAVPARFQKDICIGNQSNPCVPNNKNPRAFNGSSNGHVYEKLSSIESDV
Chain of human NR1/NR2A (Q12879 23-1464, other chains not shown): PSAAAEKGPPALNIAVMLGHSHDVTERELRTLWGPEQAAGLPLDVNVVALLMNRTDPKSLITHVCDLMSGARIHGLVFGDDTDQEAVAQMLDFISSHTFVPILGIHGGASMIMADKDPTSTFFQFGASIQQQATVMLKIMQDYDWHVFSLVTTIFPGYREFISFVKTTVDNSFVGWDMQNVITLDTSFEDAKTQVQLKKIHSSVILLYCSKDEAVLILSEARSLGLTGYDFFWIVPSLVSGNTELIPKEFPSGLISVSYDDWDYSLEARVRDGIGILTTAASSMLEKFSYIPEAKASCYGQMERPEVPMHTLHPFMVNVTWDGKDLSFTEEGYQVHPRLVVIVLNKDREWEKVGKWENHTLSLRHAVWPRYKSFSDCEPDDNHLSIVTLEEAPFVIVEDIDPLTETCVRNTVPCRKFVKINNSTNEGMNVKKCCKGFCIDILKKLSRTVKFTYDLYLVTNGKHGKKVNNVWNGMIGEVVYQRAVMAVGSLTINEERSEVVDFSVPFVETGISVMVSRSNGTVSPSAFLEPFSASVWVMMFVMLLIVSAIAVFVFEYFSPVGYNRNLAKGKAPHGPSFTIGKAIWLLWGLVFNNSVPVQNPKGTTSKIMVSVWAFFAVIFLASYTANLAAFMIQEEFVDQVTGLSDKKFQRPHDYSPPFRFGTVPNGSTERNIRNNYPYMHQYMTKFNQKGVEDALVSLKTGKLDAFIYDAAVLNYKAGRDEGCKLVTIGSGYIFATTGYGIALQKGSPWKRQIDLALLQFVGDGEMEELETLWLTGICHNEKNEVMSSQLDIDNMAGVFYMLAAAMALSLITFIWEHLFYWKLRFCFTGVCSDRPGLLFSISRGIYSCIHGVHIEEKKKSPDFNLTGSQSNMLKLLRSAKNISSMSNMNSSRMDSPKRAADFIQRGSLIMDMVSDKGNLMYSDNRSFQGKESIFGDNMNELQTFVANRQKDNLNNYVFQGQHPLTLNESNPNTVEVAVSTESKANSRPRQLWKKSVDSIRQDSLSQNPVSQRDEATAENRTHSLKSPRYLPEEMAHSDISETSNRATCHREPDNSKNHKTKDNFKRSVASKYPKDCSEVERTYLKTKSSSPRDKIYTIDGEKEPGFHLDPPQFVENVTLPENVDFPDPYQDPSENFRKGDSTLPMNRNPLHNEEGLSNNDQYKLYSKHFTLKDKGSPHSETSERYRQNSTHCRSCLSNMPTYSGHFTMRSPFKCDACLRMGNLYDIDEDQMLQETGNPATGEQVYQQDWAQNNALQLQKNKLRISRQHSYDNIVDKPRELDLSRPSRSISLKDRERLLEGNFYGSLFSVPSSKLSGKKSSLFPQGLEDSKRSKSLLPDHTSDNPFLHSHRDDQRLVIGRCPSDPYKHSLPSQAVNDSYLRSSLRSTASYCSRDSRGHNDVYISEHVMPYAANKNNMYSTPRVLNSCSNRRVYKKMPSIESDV
Chain of CYP2D6 (P10635 whole entry): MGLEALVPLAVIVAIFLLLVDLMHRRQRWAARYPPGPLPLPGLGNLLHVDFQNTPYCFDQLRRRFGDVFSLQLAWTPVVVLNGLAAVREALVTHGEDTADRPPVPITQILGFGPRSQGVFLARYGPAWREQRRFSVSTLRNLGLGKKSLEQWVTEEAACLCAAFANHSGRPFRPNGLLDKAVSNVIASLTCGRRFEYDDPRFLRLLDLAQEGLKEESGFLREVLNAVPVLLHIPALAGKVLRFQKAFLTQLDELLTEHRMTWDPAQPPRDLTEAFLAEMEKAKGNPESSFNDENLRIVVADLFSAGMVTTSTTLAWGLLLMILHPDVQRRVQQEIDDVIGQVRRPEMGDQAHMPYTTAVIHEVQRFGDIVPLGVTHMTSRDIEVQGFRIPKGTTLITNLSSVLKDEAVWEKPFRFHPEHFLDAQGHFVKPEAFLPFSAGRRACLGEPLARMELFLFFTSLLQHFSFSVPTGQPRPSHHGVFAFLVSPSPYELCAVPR
Chain of hERG channel (Q12809 whole entry): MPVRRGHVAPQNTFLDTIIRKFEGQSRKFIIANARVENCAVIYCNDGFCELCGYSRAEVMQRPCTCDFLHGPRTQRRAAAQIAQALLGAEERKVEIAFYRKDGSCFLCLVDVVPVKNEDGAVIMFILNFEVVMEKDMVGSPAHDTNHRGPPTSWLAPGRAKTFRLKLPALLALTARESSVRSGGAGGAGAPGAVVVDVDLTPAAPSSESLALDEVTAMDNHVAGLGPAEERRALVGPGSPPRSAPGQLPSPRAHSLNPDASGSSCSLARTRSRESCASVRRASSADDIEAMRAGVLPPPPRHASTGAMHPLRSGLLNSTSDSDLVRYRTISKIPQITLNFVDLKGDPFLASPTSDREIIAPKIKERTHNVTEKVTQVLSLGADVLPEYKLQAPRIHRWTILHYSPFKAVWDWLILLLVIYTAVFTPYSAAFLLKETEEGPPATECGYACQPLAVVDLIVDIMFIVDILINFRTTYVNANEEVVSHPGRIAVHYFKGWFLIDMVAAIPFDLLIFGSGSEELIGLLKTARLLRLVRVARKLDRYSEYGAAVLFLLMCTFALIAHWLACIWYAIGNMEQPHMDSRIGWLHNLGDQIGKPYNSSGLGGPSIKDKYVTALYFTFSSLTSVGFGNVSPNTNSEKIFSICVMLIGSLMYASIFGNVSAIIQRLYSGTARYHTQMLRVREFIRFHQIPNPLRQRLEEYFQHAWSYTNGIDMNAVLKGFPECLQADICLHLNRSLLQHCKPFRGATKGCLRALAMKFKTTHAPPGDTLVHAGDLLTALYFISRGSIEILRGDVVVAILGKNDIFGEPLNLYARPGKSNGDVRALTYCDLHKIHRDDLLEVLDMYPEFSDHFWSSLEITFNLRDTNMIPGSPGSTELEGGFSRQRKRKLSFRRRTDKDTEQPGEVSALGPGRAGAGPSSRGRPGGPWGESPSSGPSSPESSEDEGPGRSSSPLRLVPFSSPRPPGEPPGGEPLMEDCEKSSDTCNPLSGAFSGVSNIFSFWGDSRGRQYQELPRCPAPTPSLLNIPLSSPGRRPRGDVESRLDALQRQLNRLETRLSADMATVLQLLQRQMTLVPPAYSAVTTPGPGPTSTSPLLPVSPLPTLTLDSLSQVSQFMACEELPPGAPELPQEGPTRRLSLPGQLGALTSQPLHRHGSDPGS

## Fc1ccc(C(F)(F)CN2CCC(Nc3ncnc4[nH]ccc34)CC2)nc1 [Compound C-2, N-(1-(2,2-difluoro-2-(5-fluoropyridin-2-yl)ethyl)piperidin-4-yl)-7H-pyrrolo[2,3-d]-pyrimidin-4-amine]
[1]; read-out: NR2B IC50
  IC50: 124 nM
[2]
  IC50: > 10000 nM

## FC(F)(CN1CCC(Nc2ncnc3[nH]ccc23)CC1)c1ccc(Cl)cn1 [Compound C-3, N-(1-(2-(5-chloropyridin-2-yl)-2,2-difluoroethyl)piperidin-4-yl)-7H-pyrrolo-[2,3-d]pyrimidin-4-amine]
[3]
  IC50: 12000 nM
[4]
  IC50: 7000 nM
[2]
  IC50: > 10000 nM

## Cc1ccc(C(F)(F)CN2CCC(Nc3ncnc4[nH]ccc34)CC2)nc1 [Compound C-4, N-(1-(2,2-difluoro-2-(5-methylpyridin-2-yl)ethyl)piperidin-4-yl)-7H-pyrrolo[2,3-d]pyrimidin-4-amine]
[4]
  IC50: 11400 nM
[1]; read-out: NR2B IC50
  IC50: 35 nM
[1]; read-out: hNR2B IC50
  IC50: 35 nM
[2]
  IC50: > 10000 nM

## FC(F)(F)c1ccc(C(F)(F)CN2CCC(Nc3ncnc4[nH]ccc34)CC2)nc1 [Compound C-5, N-(1-(2,2-difluoro-2-(5-(trifluoromethyl)pyridin-2-yl)ethyl)piperidin-4-yl)-7H-pyrrolo[2,3-d]pyrimidin-4-amine]
[3]
  IC50: 33000 nM
[4]
  IC50: 9500 nM
[1]; [7]
  IC50: 30 nM
[1]; [8]
  IC50: 30 nM
[1]; as printed in the hERG table, read-out: hNR2B IC50
  IC50: 30 nM

## FC(F)c1ccc(C(F)(F)CN2CCC(Nc3ncnc4[nH]ccc34)CC2)nc1 [Compound C-6, N-(1-(2-(5-(difluoromethyl)pyridin-2-yl)-2,2-difluoroethyl)piperidin-4-yl)-7H-pyrrolo[2,3-d]pyrimidin-4-amine]
[1]; [7]
  IC50: 31 nM

## FCc1ccc(C(F)(F)CN2CCC(Nc3ncnc4[nH]ccc34)CC2)nc1 [Compound C-7, N-(1-(2,2-difluoro-2-(5-(fluoromethyl)pyridin-2-yl)ethyl)piperidin-4-yl)-7H-pyrrolo[2,3-d]pyrimidin-4-amine]
[1]; read-out: NR2B IC50
  IC50: 14 nM
[2]
  IC50: > 10000 nM

## FC(F)(F)Oc1ccc(C(F)(F)CN2CCC(Nc3ncnc4[nH]ccc34)CC2)nc1 [Compound C-11, N-(1-(2,2-difluoro-2-(5-(trifluoromethoxy)pyridin-2-yl)ethyl)piperidin-4-yl)-7H-pyrrolo[2,3-d]pyrimidin-4-amine]
[1]; [7]
  IC50: 43 nM

## Fc1cc(Cl)cnc1C(F)(F)CN1CCC(Nc2ncnc3[nH]ccc23)CC1 [Compound C-16, N-(1-(2-(5-chloro-3-fluoropyridin-2-yl)-2,2-difluoroethyl)piperidin-4-yl)-7H-pyrrolo[2,3-d]pyrimidin-4-amine]
[1]; read-out: NR2B IC50
  IC50: 47 nM
[2]
  IC50: > 10000 nM

## Cc1cnc(C(F)(F)CN2CCC(Nc3ncnc4[nH]ccc34)CC2)c(F)c1 [Compound C-17, N-(1-(2,2-difluoro-2-(3-fluoro-5-methylpyridin-2-yl)ethyl)piperidin-4-yl)-7H-pyrrolo[2,3-d]pyrimidin-4-amine]
[1]; read-out: NR2B IC50
  IC50: 44 nM
[2]
  IC50: > 10000 nM

## Fc1cc(C(F)(F)F)cnc1C(F)(F)CN1CCC(Nc2ncnc3[nH]ccc23)CC1 [Compound C-18, N-(1-(2,2-difluoro-2-(3-fluoro-5-(trifluoromethyl)pyridin-2-yl)-ethyl)piperidin-4-yl)-7H-pyrrolo[2,3-d]pyrimidin-4-amine]
[1]; [7]
  IC50: 84 nM

## Cc1ccc(C(F)(F)CN2CCC(N(C)c3ncnc4[nH]ccc34)CC2)nc1 [Compound C-47, N-(1-(2,2-difluoro-2-(5-methylpyridin-2-yl)ethyl)piperidin-4-yl)-N-methyl-7H-pyrrolo[2,3-d]pyrimidin-4-amine]
[1]; read-out: NR2B IC50
  IC50: 140 nM
[2]
  IC50: > 10000 nM

## Cc1ccc(C(F)(F)CN2CCC(Nc3ncnc4[nH]ccc34)CC2)cn1 [Compound C-128, N-(1-(2,2-difluoro-2-(6-methylpyridin-3-yl)ethyl)piperidin-4-yl)-7H-pyrrolo-[2,3-d]pyrimidin-4-amine]
[4]
  IC50: 28000 nM
[1]; read-out: NR2B IC50
  IC50: 89 nM
[1]; read-out: hNR2B IC50
  IC50: 89 nM
[2]
  IC50: > 10000 nM

## Fc1ccc(C(F)(F)CN2CCC(Nc3ncnc4[nH]ccc34)CC2)cc1 [Compound C-175, N-(1-(2,2-difluoro-2-(4-fluorophenyl)ethyl)piperidin-4-yl)-7H-pyrrolo[2,3-d]-pyrimidin-4-amine]
[3]
  IC50: 2300 nM
[4]
  IC50: 4500 nM
[1]; read-out: NR2B IC50
  IC50: 22 nM
[1]; read-out: hNR2B IC50
  IC50: 22 nM
[2]
  IC50: > 10000 nM

## FC(F)(CN1CCC(Nc2ncnc3[nH]ccc23)CC1)c1ccc(Cl)cc1 [Compound C-176, N-(1-(2-(4-chlorophenyl)-2,2-difluoroethyl)piperidin-4-yl)-7H-pyrrolo[2,3-d]pyrimidin-4-amine]
[1]; read-out: NR2B IC50
  IC50: 26 nM
[2]
  IC50: > 10000 nM

## Cc1ccc(C(F)(F)CN2CCC(Nc3ncnc4[nH]ccc34)CC2)cc1 [Compound C-177, N-(1-(2,2-difluoro-2-p-tolylethyl)piperidin-4-yl)-7H-pyrrolo[2,3-d]-pyrimidin-4-amine]
[1]; read-out: NR2B IC50
  IC50: 27 nM
[2]
  IC50: > 10000 nM

## FC(F)(F)c1ccc(C(F)(F)CN2CCC(Nc3ncnc4[nH]ccc34)CC2)cc1 [Compound C-178, N-(1-(2,2-difluoro-2-(4-(trifluoromethyl)phenyl)ethyl)piperidin-4-yl)-7H-pyrrolo-[2,3-d]pyrimidin-4-amine]
[3]
  IC50: 6700 nM
[1]; [7]
  IC50: 64 nM
[1]; [8]
  IC50: 64 nM
[2]; [9]
  IC50: > 10000 nM

## FC(F)c1ccc(C(F)(F)CN2CCC(Nc3ncnc4[nH]ccc34)CC2)cc1 [Compound C-179, N-(1-(2-(4-(difluoromethyl)phenyl)-2,2-difluoroethyl)piperidin-4-yl)-7H-pyrrolo[2,3-d]pyrimidin-4-amine]
[3]
  IC50: 4900 nM
[2]; [9]
  IC50: > 10000 nM

## Cc1cnc(C(F)(F)CN2CCC(Nc3ncnc4[nH]ccc34)CC2)cn1 [Compound C-230, N-(1-(2,2-difluoro-2-(5-methylpyrazin-2-yl)ethyl)piperidin-4-yl)-7H-pyrrolo[2,3-d]pyrimidin-4-amine]
[4]
  IC50: 13800 nM
[1]; read-out: NR2B IC50
  IC50: 88 nM
[1]; read-out: hNR2B IC50
  IC50: 88 nM
[2]
  IC50: > 10000 nM

## CN1C(=O)CN=C(c2ccccc2)c2cc(Cl)ccc21 [diazepam]
[5]
  pro-/anticonvulsant activity (electroconvulsive threshold): expected pro- and anticonvulsant activities

## CN(C)CCCN1c2ccccc2CCc2ccccc21 [imipramine]
[6]
  antidepressant activity (immobility time): expected antidepressant activity

## Cn1c(=O)c2[nH]cnc2n(C)c1=O [theophylline]
[5]
  pro-/anticonvulsant activity (electroconvulsive threshold): expected pro- and anticonvulsant activities
